Laboratory results from US9057054B2, “Antigen-specific long-term memory T-cells” (THE REGENTS OF THE UNIVERSITY OF MICHIGAN, priority 2009, dated 2015).

Tests used:
[1] = system: antigen-primed CD8+ T cells; assay: Secondary culture in the absence of IL-2 (IL-2 withdrawal), live cell ratio, with or without oligomycin; type: cell-based, mouse
[2] = system: antigen-primed CD8+ T cells; assay: Oxygen consumption and lactate production assay, share of ATP from oxidative phosphorylation and glycolysis
[3] = system: P14 naive CD44loCD8+ T cells; assay: In vitro priming of CFSE-labeled P14 naive CD8+ T cells with gp33-pulsed DCs, IL-2 and titrated rapamycin: cell counts, CFSE division, live cell ratio; type: cell-based, mouse; details: day 8 after culture, 50 or 100 nM rapamycin

CO[C@H]1C[C@@H]2CC[C@@H](C)[C@@](O)(O2)C(=O)C(=O)N2CCCC[C@H]2C(=O)O[C@H]([C@H](C)C[C@@H]2CC[C@@H](O)[C@H](OC)C2)CC(=O)[C@H](C)/C=C(\C)[C@@H](O)[C@@H](OC)C(=O)[C@H](C)C[C@H](C)/C=C/C=C/C=C/1C [rapamycin]
viable cells after IL-2 withdrawal ([1]; by 24 hours after IL-2 withdrawal): Approximately 100%
cells remaining lived after IL-2 withdrawal ([1]; by 74 hours after withdrawal): more than 60%
oxygen consumption increase versus IL-2 CD8+ T cells ([2]; cells collected 6 days after culture): 2 fold
ATP derived from oxidative phosphorylation metabolism ([2]; share of total ATP generation): more than 90%
dead cells [3]: less than 5%
